Laboratory results from patent US9113629B2, “4-amino-6-(4-substituted-phenyl)-picolinates and 6-amino-2-(4-substituted-phenyl)-pyrimidine-4-carboxylates and their use as herbicides” (DOW AGROSCIENCES LLC, priority 2013, dated 2015).
Read-outs that look alike come from different tables or passages of the source.

How the values were obtained:
Assay type in all cases: in vivo
LAMSS = experiment: Post-emergent Test III, herbicidal activity in wheat and barley; details: for GR50 LAMSS / GR80 LAMSS: probit analysis; for pest or weed control at 35 g/ha: 35 g ai/ha; for pest or weed control at 70 g/ha: 70 g ai/ha
How it was run: (§1)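 GR20, GR50, GR80 and GR90 come from probit analysis of visual injury scores (0 = none, 100 = complete kill) taken 21 d after treatment. Foliar application was by track sprayer delivering 187 L/ha at five rates, from high down to 1/16×, onto greenhouse plants at the 2–3 leaf stage, with solvent-blank controls.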

[1] = tested on: PAPRH: common poppy (Papaver rhoeas); experiment: as above; details: Table 8, 21 d; for pest or weed control at 35 g/ha: 35 g ai/ha; for pest or weed control at 70 g/ha: 70 g ai/ha; for GR50 PAPRH: dose for 50 percent growth reduction; for GR50 PAPRH / GR80 PAPRH: probit analysis; for GR80 PAPRH: dose for 80 percent growth reduction
How it was run: as §1

[2] = tested on: VERPE: bird's-eye speedwell (veronica persica); experiment: as above; details: for GR50 VERPE: dose for 50 percent growth reduction; for GR50 VERPE / GR80 VERPE: probit analysis; for GR80 VERPE: dose for 80 percent growth reduction; for pest or weed control at 35 g/ha: 35 g ai/ha; for pest or weed control at 70 g/ha: 70 g ai/ha
How it was run: as §1

[3] = tested on: IPOHE: ivyleaf morningglory (Ipomoea hederecea); experiment: Pre-emergent Test I herbicidal activity; details: pre-emergence, 336 h, read-out: Visual Growth Reduction (%) 14 Days After Application, IPOHE; for pest or weed control at 4000 g/ha: 4 kg ai/ha
Description: (§2) Pre-emergent Test I Seeds of test species were planted into round plastic pots (5-inch diameter) containing sandy loam soil. After planting, all pots were sub-irrigated 16 h prior to compound application. Compounds were dissolved in a 97:3 v/v (volume/volume) mixture of acetone and dimethyl sulfoxide (DMSO) and diluted to the appropriate concentration in a final application solution containing water, acetone, isopropanol, DMSO and Agri-dex (crop oil concentrate) in a 59:23:15:1.0:1.5 v/v ratio and 0.02% w/v (weight/volume) of Triton X-155 to obtain the spray solution containing the highest application rate. Additional application rates were obtained by serial dilution of the high rate solution with the above application solution. Formulated compound (2.7 mL) was applied pipetted evenly over the soil surface followed by incorporation with water (15 mL). Following treatment, pots were returned to the greenhouse for the duration of the experiment. The greenhouse was programmed for an approximate 15 h photoperiod which was maintained at about 23-29° C. during the day and 22-28° C. during the night. Nutrients and water were added on a regular basis through surface irrigation and supplemental lighting was provided with overhead metal halide 1000-Watt lamps as necessary. Herbicidal effect ratings were obtained 14 days after treatment. All evaluations were made relative to appropriate controls on a scale of 0 to 100 where 0 represents no herbicidal effect and 100 represents plant death or lack of emergence from the soil.

[4] = tested on: SETFA: giant foxtail (Setaria faberi); experiment: Pre-emergent Test I herbicidal activity; details: pre-emergence, 336 h, read-out: Visual Growth Reduction (%) 14 Days After Application, SETFA; for pest or weed control at 4000 g/ha: 4 kg ai/ha
Description: as §2

[5] = tested on: ALOMY: black-grass (Alopecurus myosuroides); experiment: Post-emergent Test III, herbicidal activity in wheat and barley
How it was run: as §1

[6] = tested on: BROTE: downy brome (Bromus tectorum); experiment: as above
How it was run: as §1

[7] = Table 8, dose for 50 percent growth reduction, 21 d
[8] = Table 8, dose for 80 percent growth reduction, 21 d
[9] = post-emergence, 504 h, Table 8, post-emergent, 21 d, read-out: Visual Growth Reduction (%) 21 Days After Application LAMSS
[10] = Papaver rhoeas, post-emergence, 504 h, post-emergent, read-out: Visual Growth Reduction (%) 21 Days After Application PAPRH
[11] = Veronica persica, post-emergence, 504 h, Table 8, post-emergent, 21 d, read-out: Visual Growth Reduction (%) 21 Days After Application VERPE
[12] = Veronica persica, post-emergence, 504 h, 21 days after application, read-out: Visual Gorowth Reduction (%) 21 days After Application VERPE
[13] = probit analysis, dose for growth reduction of 50 percent, 21 days after application
[14] = probit analysis, dose for growth reduction of 80 percent, 21 days after application
[15] = post-emergence, 504 h, read-out: Visual Growth Reduction (%) 21 Days After Application LAMSS

| Structure (SMILES) | GR50 LAMSS (LAMSS; [7]) | GR80 LAMSS (LAMSS; [8]) | pest or weed control at 35 g/ha (LAMSS; [9]) | pest or weed control at 70 g/ha (LAMSS; [9]) | pest or weed control at 35 g/ha [1, 10] | pest or weed control at 70 g/ha [1, 10] | GR50 PAPRH [1] | GR80 PAPRH [1] | GR50 VERPE ([2]; Table 8, 21 d) | GR80 VERPE ([2]; Table 8, 21 d) | pest or weed control at 35 g/ha [2, 11] | pest or weed control at 70 g/ha [2, 11] | other results |
| --- | --- | --- | --- | --- | --- | --- | --- | --- | --- | --- | --- | --- | --- |
| Nc1cc(-c2cc(F)c(Br)cc2F)nc(C(=O)O)c1Cl [Compound 3] | 1 g ai/ha | 1 g ai/ha | 95 to 100% | 95 to 100% | 95 to 100% | 95 to 100% | 1 g ai/ha | 1 g ai/ha | 34 g ai/ha | 126 g ai/ha | 45 to 59% | 60 to 74% |  |
| COC(=O)c1nc(-c2ccc(I)c(F)c2)nc(N)c1OC [Compound 27, Methyl 6-amino-2-(3-fluoro-4-iodophenyl)-5-methoxypyrimidine-4-carboxylate] | 1 g ai/ha | 14 g ai/ha | 85 to 94% | 85 to 94% | 95 to 100% | 95 to 100% | 1 g ai/ha | 1 g ai/ha | 5 g ai/ha | 42 g ai/ha | 75 to 84% | 85 to 94% |  |
| COc1c(N)nc(-c2ccc(I)c(F)c2)nc1C(=O)O [Compound 37, 6-Amino-2-(3-fluoro-4-iodophenyl)-5-methoxypyrimidine-4-carboxylic acid] | 1 g ai/ha | 11 g ai/ha | 85 to 94% | 95 to 100% | 95 to 100% | 95 to 100% | 1 g ai/ha | 1 g ai/ha | 15 g ai/ha | 66 g ai/ha | 60 to 74% | 75 to 84% |  |
| Nc1c(Cl)c(C(=O)O)nc(-c2ccc(Br)c(F)c2)c1Cl [Compound 43, 4-Amino-6-(4-bromo-3-fluorophenyl)-3,5-dichloropicolinic acid] | 1 g ai/ha | 10 g ai/ha | 85 to 94% | 85 to 94% | 95 to 100% | 95 to 100% | 1 g ai/ha | 1 g ai/ha | 33 g ai/ha | >140 g ai/ha | 30 to 44% | 75 to 84% |  |
| Nc1c(F)c(-c2cc(F)c(I)cc2F)nc(C(=O)O)c1Cl [Compound 69] |  |  |  |  |  |  |  |  |  |  |  |  | pest or weed control at 35 g/ha [2, 12]: 85 to 94%; pest or weed control at 70 g/ha [2, 12]: 95 to 100%; GR50 VERPE ([2]; 21 days after application): 1 g ai/ha; GR80 VERPE ([2]; 21 days after application): 4 g ai/ha |
| COC(=O)c1nc(-c2ccc(I)c(F)c2)c(C)c(N)c1Cl [Compound 79, Methyl 4-amino-3-chloro-6-(3-fluoro-4-iodophenyl)-5-methylpicolinate] | 27 g ai/ha | 72 g ai/ha | 60 to 74% | 60 to 74% | 95 to 100% | 95 to 100% | 1 g ai/ha | 1 g ai/ha | 2 g ai/ha | 37 g ai/ha | 75 to 84% | 85 to 94% |  |
| C=Cc1c(C(=O)O)nc(-c2ccc(C(F)(F)F)c(F)c2)c(F)c1N [Compound 86] |  |  |  |  |  |  |  |  |  |  |  |  | pest or weed control at 35 g/ha [2, 12]: 85 to 94%; pest or weed control at 70 g/ha [2, 12]: 85 to 94%; GR50 VERPE ([2]; 21 days after application): 15 g ai/ha; GR80 VERPE ([2]; 21 days after application): 34 g ai/ha |
| COC(=O)c1nc(-c2ccc(Br)c(F)c2F)c(F)c(N)c1Cl [Compound 109, methyl 4-amino-6-(4-bromo-2,3-difluorophenyl)-3-chloro-5-fluoropicolinate] |  |  |  |  |  |  |  |  |  |  |  |  | pest or weed control at 4000 g/ha [3]: 95 to 100%; pest or weed control at 4000 g/ha [4]: 95 to 100%; pest or weed control at 35 g/ha ([5]; Alopecurus myosuroides, post-emergence, 504 h, 35 g ai/ha, read-out: Visual Growth Reduction (%) 21 Days After Application ALOMY): 60 to 74%; pest or weed control at 70 g/ha ([5]; Alopecurus myosuroides, post-emergence, 504 h, 70 g ai/ha, read-out: Visual Growth Reduction (%) 21 Days After Application ALOMY): 75 to 84%; GR50 ALOMY [5, 13]: 22 g ai/ha; GR80 ALOMY [5, 14]: 88 g ai/ha; pest or weed control at 35 g/ha ([6]; Bromus tectorum, post-emergence, 504 h, 35 g ai/ha, read-out: Visual Growth Reduction (%) 21 Days After Application BROTE): 75 to 84%; pest or weed control at 70 g/ha ([6]; Bromus tectorum, post-emergence, 504 h, 70 g ai/ha, read-out: Visual Growth Reduction (%) 21 Days After Application BROTE): 85 to 94%; GR50 BROTE [6, 13]: 14 g ai/ha; GR80 BROTE [6, 14]: 41 g ai/ha; pest or weed control at 35 g/ha (LAMSS; [15]): 95 to 100%; pest or weed control at 70 g/ha (LAMSS; [15]): 95 to 100%; GR50 LAMSS (LAMSS; dose for growth reduction of 50 percent, 21 days after application): 1 g ai/ha; GR80 LAMSS (LAMSS; dose for growth reduction of 80 percent, 21 days after application): 1 g ai/ha |
| Nc1cc(-c2ccc(I)cc2F)nc(C(=O)O)c1Cl [Compound 124] | 1 g ai/ha | 1 g ai/ha | 95 to 100% | 95 to 100% | 95 to 100% | 95 to 100% | 1 g ai/ha | 1 g ai/ha | 20 g ai/ha | 39 g ai/ha | 75 to 84% | 85 to 94% |  |
| Nc1c(Cl)c(C(=O)O)nc(-c2ccc(I)c(F)c2)c1Cl [Compound 145, 4-Amino-3,5-dichloro-6-(3-fluoro-4-iodophenyl)picolinic acid] | 4 g ai/ha | 13 g ai/ha | 95 to 100% | 95 to 100% | 95 to 100% | 95 to 100% | 1 g ai/ha | 1 g ai/ha | 1 g ai/ha | 10 g ai/ha | 85 to 94% | 85 to 94% | pest or weed control at 140 g/ha (LAMSS; post-emergence, 504 h, Table 8, 140 g ai/ha, post-emergent, 21 d, read-out: Visual Growth Reduction (%) 21 Days After Application LAMSS): 95 to 100%; pest or weed control at 140 g/ha ([1]; Papaver rhoeas, post-emergence, 504 h, 140 g ai/ha, post-emergent, read-out: Visual Growth Reduction (%) 21 Days After Application PAPRH): 95 to 100%; pest or weed control at 140 g/ha ([2]; Veronica persica, post-emergence, 504 h, Table 8, 140 g ai/ha, post-emergent, 21 d, read-out: Visual Growth Reduction (%) 21 Days After Application VERPE): 95 to 100% |
| COC(=O)c1nc(-c2ccc(Br)c(F)c2)nc(N)c1OC [Compound 171, Methyl 6-amino-2-(4-bromo-3-fluorophenyl)-5-methoxypyrimidine-4-carboxylate] | 2 g ai/ha | 11 g ai/ha | 85 to 94% | 95 to 100% | 95 to 100% | 95 to 100% | 1 g ai/ha | 1 g ai/ha | 4 g ai/ha | 27 g ai/ha | 85 to 94% | 85 to 94% |  |
| COC(=O)c1nc(-c2cccc(F)c2F)c(F)c(N)c1Cl [Compound 199] |  |  |  |  |  |  |  |  |  |  |  |  | pest or weed control at 4000 g/ha [3]: 75 to 84%; pest or weed control at 4000 g/ha [4]: 45 to 59% |
| COC(=O)c1nc(-c2ccccc2F)c(F)c(N)c1Cl [Compound 206] |  |  |  |  |  |  |  |  |  |  |  |  | pest or weed control at 4040 g/ha ([3]; 4.04 kg ai/ha): 95 to 100%; pest or weed control at 4040 g/ha ([4]; 4.04 kg ai/ha): 75 to 84% |
